Measurements reported in US20230048888A1, “USE OF TRIAZOLOTRIAZINE DERIVATIVE IN TREATMENT OF DISEASES” (ZHEJIANG VIMGREEN PHARMACEUTICALS, LTD., priority 2019, published 2023).

Test system: 6-OHDA-induced contralateral rotation
Test: 6-OHDA-induced rat rotation experiment, first stage (number of rotations)
Assay type: in vivo, Wistar rats
Description: After long-term use of levodopa, patients with Parkinson's disease are prone to drug resistance (end-of-dose phenomenon). That is, the duration of its pharmaceutical effect tends to gradually become shorter (shortened opening period), its efficacy will become weaker and weaker, and the symptoms of the patients are becoming more and more uncontrollable. By the combined use with the test compound, the efficacy of levodopa can be restored for patients with Parkinson's disease in the off phase, who have already experienced the end-of-dose phenomenon. The rat model of Parkinson's disease was constructed by fixed-point injection of 6-hydroxydopamine (6-OHDA) to damage the substantia nigra striatum, and then the animals were administrated with levodopa (L-DOPA)/Benserazide (BID) for a long term (3-4 weeks as planned).
There should be at least an interval of 1 day between rotation tests for respective doses. A total of 6 tests were carried out in the first stage.
[…] injection volume: each rat was injected with 4 μl of 6-OHDA solution (2.5 μg/μl) on the left medial forebrain bundle (MFB).
Coordinates for injecting […]: by taking the anterior fontanelle as a standard reference point and with reference to the stereotactic map of rat brain, the injection was performed on the left medial forebrain bundle at: anterior(A), −2.5 mm; lateral (L), +2.0 mm; ventral (V), −8.5 mm.
[…] injection speed: the injection speed was 1 μl/min; after injection, the needle was left in situ for 5 min, and then slowly withdrawn at a speed of 1 mm/min; and the wound was then sutured. Grouping and administration were carried out according to the method of experimental design.
In the first stage, only the number of rotations of the animal was tested, and only the rotation response time was tested in the second stage.
The test results are represented as “mean±standard deviation”. The data was statistically analyzed by the SPSS16.0 software package. One-way ANOVA, paired sample T test and independent sample T test were used for comparison, with P<0.05 showing a statistical difference.

CC(=O)O.Nc1nc(NCCc2ccc(NC3COC3)cc2)nc2nc(-c3ccco3)nn12 [Acetate of Compound 22, 2-(furan-2-yl)-N5-(4-(oxetane-3-ylamino)phenethyl)-[1,2,4]triazolo[1,5-a][1,3,5]triazine-5,7-diamine acetate]
Total number of rotations (60 min) (1 mg/kg oral + L-DOPA (5 mg/kg)/Benserazide (1.25 mg/kg) i.p.): 41.4 ± 80.8
Total number of rotations (60 min) (3 mg/kg oral + L-DOPA (5 mg/kg)/Benserazide (1.25 mg/kg) i.p.): 36.6 ± 46.3
Total number of rotations (60 min) (10 mg/kg oral + L-DOPA (5 mg/kg)/Benserazide (1.25 mg/kg) i.p.): 109.4 ± 205.2
Total number of rotations (60 min) (30 mg/kg oral + L-DOPA (5 mg/kg)/Benserazide (1.25 mg/kg) i.p.): 285.2 ± 283.8
Total number of rotations (60 min) (100 mg/kg oral + L-DOPA (5 mg/kg)/Benserazide (1.25 mg/kg) i.p.): 379.3 ± 326.4
Total number of rotations (60 min) (single oral 1 mg/kg alone): 7.7 ± 5.6
Total number of rotations (60 min) (single oral 3 mg/kg alone): 17.1 ± 18.7
Total number of rotations (60 min) (single oral 10 mg/kg alone): 11.6 ± 13.9
Total number of rotations (60 min) (single oral 30 mg/kg alone): 30.7 ± 22.5
Total number of rotations (60 min) (single oral 100 mg/kg alone): 35.2 ± 18.8
